For series [1], the system named is Plasma. As to the kind of experiment: (§1) Stability in human plasma assessed as compound remaining at 5 uM after 1 hr by LC/MS/MS method. Type of series: ADME, cell-free. The following applies: 1 h, 5 µM.
The nature of series [2]: as §1. Type of series: ADME, cell-free. The conditions noted are these: read-out: Stability.
Series [3] can be described thus: Metabolic stability in human liver microsomes assessed as compound remaining at 200 uM measured after 1 hr by LC/MS/MS method. Type of series: ADME. The conditions noted are these: read-out: Stability.
Series [4] deals with MV4-11. Description: […] histone methylation in human MV4-11 cells assessed as H3K79 methylation after 4 days by Western blot analysis. Type of series: functional, cell-based. The conditions noted are these: MV4-11, 96 h. Background: In western blotting, separated proteins are transferred to a membrane and probed.

For the compound `CC(C)N(CCCNC(=O)Nc1ccc(C(C)(C)C)cc1)C[C@H]1C[C@@H](n2cnc3c(N)ncnc32)[C@H](O)[C@@H]1O`, the Stability result in series [1] was “Stable”.
As to `CC(C)N(CCCNC(=O)Nc1ccc(C(C)(C)C)cc1)C[C@H]1O[C@@H](n2cnc3c(N)ncnc32)[C@H](O)[C@@H]1O`, the remaining at 1 h, 5 µM in series [2] came out at 90%. In addition, in series [3], the remaining at 1 h, 200 µM stood at 50%.
Take `CC(C)N(CCCNC(=O)Nc1ccc(C(C)(C)C)cc1)CC1=C[C@@H](n2cnc3c(N)ncnc32)[C@H](O)[C@@H]1O`: the Stability result in series [1] was “Stable”. In addition, the IC50 in series [4] stood at 200 nM. Moreover, the remaining at 1 h, 200 µM in series [3] was 50%.

The IC50 is the concentration that gives 50% inhibition.

These data come from ChEMBL document CHEMBL3132754 (Medchemcomm, 2013).
